Source: patent publication US20120122981A1, “Biomarkers Related to Insulin Resistance and Methods using the Same” (priority 2009, published 2012)

Columns and labels:
[1] = Predicted and actual Rd before and after treatment with the insulin sensitizer muraglitozar; format: in vivo, human; details: 16 subjects, pre- vs post-treatment, plasma biomarkers 1-25
Description: C-Mur1, baseline prior to muraglitazar treatment; D-Mur2, following treatment with muraglitazar, a peroxisome proliferator-activated receptor agonist and an insulin sensitizer drug. […] Biomarkers 1-25 listed in Table 4 were measured in plasma samples collected from 16 subjects that were taking the insulin sensitizer muraglitozar. The samples were collected pre-(C-Mur—1) and post-treatment (D-Mur—2) with muraglitozar.

[2] = pre-diabetic patients, DPP; cited from earlier work

SMILES | change in predicted Rd with treatment, in agreement with actual Rd by HI clamp [1] | reduction of the rate of progression to diabetes [2]
COc1ccc(OC(=O)N(CC(=O)O)Cc2ccc(OCCc3nc(-c4ccccc4)oc3C)cc2)cc1 [muraglitozar] | increased | –
CN(C)C(=N)N=C(N)N [metformin] | – | 38%
